The record followed here is ChEMBL document CHEMBL5120791, “Triterpenes from Pholiota populnea as Cytotoxic Agents and Chemosensitizers to Overcome Multidrug Resistance of Cancer Cells” (J Nat Prod, 2022).

Data set [1] deals with COLO 320. Nature of the data set: Cytotoxicity against human COLO 320 cells assessed as reduction in cell viability measured after 24 hrs by MTT assay. Type of data set: functional, cell-based. The conditions noted are these: COLO 320, 24 h.
Data set [2] addresses ATP-dependent translocase ABCB1 (Homo sapiens, UniProt P08183). Nature of the data set: Inhibition of P-gp in human COLO 320 cells assessed as potentiation of doxorubicin-induced cytotoxicity by measuring combination index measured after 72 hrs by checkerboard assay. Type of data set: cell-based. The conditions noted are these: colo 320, 72 h.
Data set [3] concerns COLO 205. Briefly: Cytotoxicity against human COLO 205 cells assessed as reduction in cell viability measured after 24 hrs by MTT assay. Type of data set: functional, cell-based. Conditions: COLO 205, 24 h.

Each structure is given as a SMILES string. pIC50: −log10 of the molar value.

Sequence of ATP-dependent translocase ABCB1 (P08183 whole entry): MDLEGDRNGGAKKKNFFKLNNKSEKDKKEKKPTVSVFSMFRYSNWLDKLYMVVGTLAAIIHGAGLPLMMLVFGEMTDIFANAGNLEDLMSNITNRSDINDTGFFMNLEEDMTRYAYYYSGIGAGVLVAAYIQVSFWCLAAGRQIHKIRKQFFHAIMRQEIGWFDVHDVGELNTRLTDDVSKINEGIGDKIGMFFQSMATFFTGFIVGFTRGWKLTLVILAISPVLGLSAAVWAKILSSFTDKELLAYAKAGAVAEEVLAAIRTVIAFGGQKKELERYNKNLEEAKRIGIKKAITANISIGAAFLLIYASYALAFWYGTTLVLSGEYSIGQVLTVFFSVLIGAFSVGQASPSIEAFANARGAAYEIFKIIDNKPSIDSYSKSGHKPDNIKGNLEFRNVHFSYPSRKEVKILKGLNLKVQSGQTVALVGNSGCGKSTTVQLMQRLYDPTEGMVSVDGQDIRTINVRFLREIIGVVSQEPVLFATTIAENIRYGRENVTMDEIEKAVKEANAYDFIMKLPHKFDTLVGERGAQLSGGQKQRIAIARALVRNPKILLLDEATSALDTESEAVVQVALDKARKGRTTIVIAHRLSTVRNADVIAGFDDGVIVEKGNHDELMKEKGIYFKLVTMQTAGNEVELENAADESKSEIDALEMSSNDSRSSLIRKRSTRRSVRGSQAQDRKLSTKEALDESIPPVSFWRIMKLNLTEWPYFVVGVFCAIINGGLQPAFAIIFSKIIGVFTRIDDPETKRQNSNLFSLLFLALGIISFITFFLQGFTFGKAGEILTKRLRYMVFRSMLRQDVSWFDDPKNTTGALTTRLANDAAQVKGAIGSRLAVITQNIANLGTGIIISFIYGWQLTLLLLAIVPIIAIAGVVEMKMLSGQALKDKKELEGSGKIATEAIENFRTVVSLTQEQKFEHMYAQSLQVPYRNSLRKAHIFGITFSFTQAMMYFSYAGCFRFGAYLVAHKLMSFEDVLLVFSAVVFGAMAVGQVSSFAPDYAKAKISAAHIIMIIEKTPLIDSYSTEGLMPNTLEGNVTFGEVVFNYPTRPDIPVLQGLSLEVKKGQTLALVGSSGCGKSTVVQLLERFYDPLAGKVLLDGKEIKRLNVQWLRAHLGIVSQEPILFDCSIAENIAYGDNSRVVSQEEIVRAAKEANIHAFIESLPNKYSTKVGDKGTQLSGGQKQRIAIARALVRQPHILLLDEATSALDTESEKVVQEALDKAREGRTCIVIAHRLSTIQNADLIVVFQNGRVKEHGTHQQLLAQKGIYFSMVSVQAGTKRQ

For the compound `CC(C)[C@@H](C)/C=C/[C@@H](C)[C@H]1CC[C@H]2C3=CC[C@H]4CC(=O)CC[C@]4(C)[C@H]3CC[C@]12C`, the pIC50 in data set [1] is 5.08; in data set [3] it was 4.94. The CI50 in data set [2] is recorded as 0.521.
